{
  "source": "patent US7981913B2",
  "about": "“Isophthalates as beta-secretase inhibitors” (Bristol-Myers Squibb Company, priority 2005, dated 2011)",
  "data": [
    {"target": "T1, BACE1 enzyme (Homo sapiens, UniProt P56817)", "T1 construct": "The HEK293-9B.A1 cell line, which overexpresses the BACE1 enzyme, was derived from HEK293 cells; endogenous in cells; washed 48,000 x g membrane pellet / cell homogenate", "T1 sequence (P56817 46-501)": "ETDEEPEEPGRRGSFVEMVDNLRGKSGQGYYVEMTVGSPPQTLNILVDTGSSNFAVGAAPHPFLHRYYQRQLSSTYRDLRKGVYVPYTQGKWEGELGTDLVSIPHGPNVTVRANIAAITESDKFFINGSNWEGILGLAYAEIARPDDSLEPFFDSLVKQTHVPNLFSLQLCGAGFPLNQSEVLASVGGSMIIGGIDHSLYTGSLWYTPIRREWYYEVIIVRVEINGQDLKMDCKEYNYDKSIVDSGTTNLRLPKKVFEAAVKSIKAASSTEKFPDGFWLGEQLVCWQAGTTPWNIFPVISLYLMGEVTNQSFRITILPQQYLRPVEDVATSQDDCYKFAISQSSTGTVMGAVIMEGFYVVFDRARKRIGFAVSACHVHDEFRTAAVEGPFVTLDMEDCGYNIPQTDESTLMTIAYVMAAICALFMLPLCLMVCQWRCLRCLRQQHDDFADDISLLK", "experiment": "Radioligand displacement assay with a radiolabeled BACE inhibitor on HEK293-9B.A1 cell homogenate", "type": "binding", "details": "displacement of 1 nM tritiated radioligand, HEK293-9B.A1 homogenate, pH 5.0, 1.5 hr at 25° C.; read-out: Activity Rating (based on IC50 values)", "description": "There are a number of methods by which inhibitors of the BACE enzyme can be identified experimentally. The enzyme can be obtained from membrane samples from natural tissues or cultured cells or can be expressed recombinantly in a host cell by well known methods of molecular biology. The whole enzyme or a portion thereof can be expressed, for example, in bacterial, insect or mammalian cells to obtain a catalytically active enzyme species. The enzymatic activity and/or ligand binding capability of the enzyme can be assessed within these membrane samples, or the enzyme can be purified to varying extents. As an illustrative example, the nucleic acid sequence encoding the pro and catalytic domains of human BACE can be appended on the 5′ end with an untranslated and signal sequence from the gene for acetylcholinesterase, and on the 3′ end with a sequence encoding a poly-histidine tag. This cDNA can then be expressed in Drosophila melanogaster S2 cells in which the signal and pro sequences of the transcribed/translated protein are removed by cellular proteases and the catalytic domain, appended by a C-terminal poly-histidine tag, is secreted out into the cellular medium. The enzyme can then be purified from the culture medium by nickel affinity chromatography by methods well known to those trained in the art [Mallender, W. et al., (2001) “Characterization of recombinant, soluble beta-secretase from an insect cell expression system.” Mol. Pharmacol. 59: 619-626]. Similar strategies for expressing and purifying various forms of BACE in bacterial, mammalian and other cell types would be known to one skilled in the art. A preferred method for determining the potency of a test compound in binding to the BACE enzyme is by monitoring the displacement of a suitable radioligand.\nRadioligand displacement assays with a radiolabeled BACE inhibitor (WO 2004 013098, compound 3, where the methoxy group is substituted for C(^3H)3) were carried out using standard methods (Keen, M. (1999) in Receptor Binding Techniques (Walker, J. M. ed) p. 106 Humana Press, Totowa, N.J.). The HEK293-9B.A1 cell line, which overexpresses the BACE1 enzyme, was derived from HEK293 cells (Simmons, N. L. (1990) A cultured human renal epithelioid cell line responsive to vasoactive intestinal peptide. Exp. Physiol. 75:309-19.) by RAGE™ (Harrington, J. J. et al. (2001) Creation of genome-wide protein expression libraries using random activation of gene expression. Nat. Biotechnol. 19:440-5; U.S. Pat. Nos. 6,410,266 and 6,361,972). […]", "units": {"IC50": "nM"}, "values": [
      {"smiles": "CCCCN(C)C(=O)c1cccc(C(=O)N[C@@H](Cc2cc(F)cc(F)c2)[C@H](O)[C@H]2CC(c3ccccc3)CN2)c1", "note": "(stereo partly drawn) [Example 7, N^1-butyl-N^3-((1R,2S)-3-(3,5-difluorophenyl)-1-hydroxy-1-((2R)-4-phenylpyrrolidin-2-yl)propan-2-yl)-N^1-methylisophthalamide]", "IC50": "100 to 1000"},
      {"smiles": "CCCO[C@H]1CN[C@@H]([C@@H](O)[C@H](Cc2cc(F)cc(F)c2)NC(=O)c2cc(C(=O)N3CCC[C@@H]3COC)cc(-c3ncco3)c2)C1", "note": "[Example 11, N-((1R,2S)-3-(3,5-difluorophenyl)-1-hydroxy-1-((2R,4R)-4-propoxypyrrolidin-2-yl)propan-2-yl)-3-((R)-2-(methoxymethyl)pyrrolidine-1-carbonyl)-5-(oxazol-2-yl)benzamide]", "IC50": "< 100"},
      {"smiles": "CCCO[C@H]1CN[C@@H]([C@@H](O)[C@H](Cc2cc(F)cc(F)c2)NC(=O)c2cc(C(=O)N(CCC)CCC)cc(-c3ncco3)c2)C1", "note": "[Example 12, N^1-((1R,2S)-3-(3,5-difluorophenyl)-1-hydroxy-1-((2R,4R)-4-propoxypyrrolidin-2-yl)propan-2-yl)-5-(oxazol-2-yl)-N^3,N^3-dipropylisophthalamide]", "IC50": "< 100"},
      {"smiles": "CCCN(CCC)C(=O)c1cc(C(=O)N[C@@H](Cc2ccccc2)[C@H](O)[C@H]2C[C@@H](S(=O)(=O)CCC)CN2)cc(-c2ncco2)c1", "note": "[Example 17, N^1-((1R,2S)-1-hydroxy-3-phenyl-1-((2R,4R)-4-(propylsulfonyl)pyrrolidin-2-yl)propan-2-yl)-5-(oxazol-2-yl)-N^3,N^3-dipropylisophthalamide]", "IC50": "< 100"}
    ]}
  ]
}
